Data: publication PMC7347136 (PLoS ONE, 2020)

Tests used:
Assay in all cases: Carna kinase panel screen
Assay type in all cases: biochemical
Settings in all cases: read-out: % Inhibition ± SD
ALK = molecular target: T1, ALK (Homo sapiens, UniProt Q9UM73)
T1 construct: purchased Carna Biosciences
Procedure: (§1) IC50 values were determined from a 10-point concentration curve using ATP concentrations approximating Km values. […] The percentage inhibition of each test solution was calculated, which allowed the IC50 value to be determined from concentration versus percentage inhibition curves by fitting to a four parameter logistic curve.

AMPKa1 = molecular target: T2, AMPKa1 (Homo sapiens, UniProt Q13131)
T2 construct: purchased Carna Biosciences
Procedure: as §1

BLK = molecular target: T3, BLK (Homo sapiens, UniProt P51451)
T3 construct: purchased Carna Biosciences
Procedure: as §1

BRAF = molecular target: T4, BRAF (Homo sapiens, UniProt P15056)
T4 construct: purchased Carna Biosciences
Procedure: as §1

BRAF[V600E] = molecular target: T5, BRAF[V600E] (Homo sapiens, UniProt P15056, V600E)
T5 construct: purchased Carna Biosciences
Procedure: as §1

CDC2 = molecular target: T6, CDC2 (Homo sapiens, UniProt P06493)
T6 construct: purchased Carna Biosciences
Procedure: as §1

CDK7 = molecular target: T7, CDK7 (Homo sapiens, UniProt P50613)
T7 construct: purchased Carna Biosciences
Procedure: as §1

DDR2 = molecular target: T8, DDR2 (Homo sapiens, UniProt Q16832)
T8 construct: purchased Carna Biosciences
Procedure: as §1

EphA7 = molecular target: T9, EphA7 (Homo sapiens, UniProt Q15375)
T9 construct: purchased Carna Biosciences
Procedure: as §1

Erk2 = molecular target: T10, Erk2 (Homo sapiens, UniProt P28482)
T10 construct: purchased Carna Biosciences
Procedure: as §1

FER = molecular target: T11, FER (Homo sapiens, UniProt P16591)
T11 construct: purchased Carna Biosciences
Procedure: as §1

FGR = molecular target: T12, FGR (Homo sapiens, UniProt P09769)
T12 construct: purchased Carna Biosciences
Procedure: as §1

GSK3a = molecular target: T13, GSK3a (Homo sapiens, UniProt P49840)
T13 construct: purchased Carna Biosciences
Procedure: as §1

IKKb = molecular target: T14, IKKb (Homo sapiens, UniProt O14920)
T14 construct: purchased Carna Biosciences
Procedure: as §1

IKKe = molecular target: T15, IKKe (Homo sapiens, UniProt Q14164)
T15 construct: purchased Carna Biosciences
Procedure: as §1

INSR = molecular target: T16, INSR (Homo sapiens, UniProt P06213)
T16 construct: purchased Carna Biosciences
Procedure: as §1

IRAK1 = molecular target: T17, IRAK1 (Homo sapiens, UniProt P51617)
T17 construct: purchased Carna Biosciences
Procedure: as §1

JNK3 = molecular target: T18, JNK3 (Homo sapiens, UniProt P53779)
T18 construct: purchased Carna Biosciences
Procedure: as §1

KIT[V560G] = molecular target: T19, KIT[V560G] (Homo sapiens, UniProt P10721, V560G)
T19 construct: purchased Carna Biosciences
Procedure: as §1

MAP2K1 = molecular target: T20, MAP2K1 (Homo sapiens, UniProt Q02750)
T20 construct: purchased Carna Biosciences
Procedure: as §1

MAP3K4 = molecular target: T21, MAP3K4 (Homo sapiens, UniProt Q9Y6R4)
T21 construct: purchased Carna Biosciences
Procedure: as §1

MAP4K2 = molecular target: T22, MAP4K2 (Homo sapiens, UniProt Q12851)
T22 construct: purchased Carna Biosciences
Procedure: as §1

MARK2 = molecular target: T23, MARK2 (Homo sapiens, UniProt Q7KZI7)
T23 construct: purchased Carna Biosciences
Procedure: as §1

MARK3 = molecular target: T24, MARK3 (Homo sapiens, UniProt P27448)
T24 construct: purchased Carna Biosciences
Procedure: as §1

MGC42105 = molecular target: T25, MGC42105 (Homo sapiens, UniProt Q8IY84)
T25 construct: purchased Carna Biosciences
Procedure: as §1

MINK = molecular target: T26, MINK (Homo sapiens, UniProt Q8N4C8)
T26 construct: purchased Carna Biosciences
Procedure: as §1

MST3 = molecular target: T27, MST3 (Homo sapiens, UniProt Q9Y6E0)
T27 construct: purchased Carna Biosciences
Procedure: as §1

MST4 = molecular target: T28, MST4 (Homo sapiens, UniProt Q9P289)
T28 construct: purchased Carna Biosciences
Procedure: as §1

PAK1 = molecular target: T29, PAK1 (Homo sapiens, UniProt Q13153)
T29 construct: purchased Carna Biosciences
Procedure: as §1

PAK2 = molecular target: T30, PAK2 (Homo sapiens, UniProt Q13177)
T30 construct: purchased Carna Biosciences
Procedure: as §1

PAK6 = molecular target: T31, PAK6 (Homo sapiens, UniProt Q9NQU5)
T31 construct: purchased Carna Biosciences
Procedure: as §1

PKACa = molecular target: T32, PKACa (Homo sapiens, UniProt P17612)
T32 construct: purchased Carna Biosciences
Procedure: as §1

PKCa = molecular target: T33, PKCa (Homo sapiens, UniProt P17252)
T33 construct: purchased Carna Biosciences
Procedure: as §1

PKCb2 = molecular target: T34, PKCb2 (Homo sapiens, UniProt P05771)
T34 construct: purchased Carna Biosciences
Procedure: as §1

PKCg = molecular target: T35, PKCg (Homo sapiens, UniProt P05129)
T35 construct: purchased Carna Biosciences
Procedure: as §1

PKCz = molecular target: T36, PKCz (Homo sapiens, UniProt Q05513)
T36 construct: purchased Carna Biosciences
Procedure: as §1

PKD1 = molecular target: T37, PKD1 (Homo sapiens, UniProt Q15139)
T37 construct: purchased Carna Biosciences
Procedure: as §1

TAK1 = molecular target: T38, TAK1 (Homo sapiens, UniProt O43318)
T38 construct: purchased Carna Biosciences
Procedure: as §1

TBK1 = molecular target: T39, TBK1 (Homo sapiens, UniProt Q9UHD2)
T39 construct: purchased Carna Biosciences
Procedure: as §1

TYK2 = molecular target: T40, TYK2 (Homo sapiens, UniProt P29597)
T40 construct: purchased Carna Biosciences
Procedure: as §1

TYRO3 = molecular target: T41, TYRO3 (Homo sapiens, UniProt Q06418)
T41 construct: purchased Carna Biosciences
Procedure: as §1

WEE1 = molecular target: T42, WEE1 (Homo sapiens, UniProt P30291)
T42 construct: purchased Carna Biosciences
Procedure: as §1

WNK1 = molecular target: T43, WNK1 (Homo sapiens, UniProt Q9H4A3)
T43 construct: purchased Carna Biosciences
Procedure: as §1

T26 sequence (Q8N4C8 whole entry): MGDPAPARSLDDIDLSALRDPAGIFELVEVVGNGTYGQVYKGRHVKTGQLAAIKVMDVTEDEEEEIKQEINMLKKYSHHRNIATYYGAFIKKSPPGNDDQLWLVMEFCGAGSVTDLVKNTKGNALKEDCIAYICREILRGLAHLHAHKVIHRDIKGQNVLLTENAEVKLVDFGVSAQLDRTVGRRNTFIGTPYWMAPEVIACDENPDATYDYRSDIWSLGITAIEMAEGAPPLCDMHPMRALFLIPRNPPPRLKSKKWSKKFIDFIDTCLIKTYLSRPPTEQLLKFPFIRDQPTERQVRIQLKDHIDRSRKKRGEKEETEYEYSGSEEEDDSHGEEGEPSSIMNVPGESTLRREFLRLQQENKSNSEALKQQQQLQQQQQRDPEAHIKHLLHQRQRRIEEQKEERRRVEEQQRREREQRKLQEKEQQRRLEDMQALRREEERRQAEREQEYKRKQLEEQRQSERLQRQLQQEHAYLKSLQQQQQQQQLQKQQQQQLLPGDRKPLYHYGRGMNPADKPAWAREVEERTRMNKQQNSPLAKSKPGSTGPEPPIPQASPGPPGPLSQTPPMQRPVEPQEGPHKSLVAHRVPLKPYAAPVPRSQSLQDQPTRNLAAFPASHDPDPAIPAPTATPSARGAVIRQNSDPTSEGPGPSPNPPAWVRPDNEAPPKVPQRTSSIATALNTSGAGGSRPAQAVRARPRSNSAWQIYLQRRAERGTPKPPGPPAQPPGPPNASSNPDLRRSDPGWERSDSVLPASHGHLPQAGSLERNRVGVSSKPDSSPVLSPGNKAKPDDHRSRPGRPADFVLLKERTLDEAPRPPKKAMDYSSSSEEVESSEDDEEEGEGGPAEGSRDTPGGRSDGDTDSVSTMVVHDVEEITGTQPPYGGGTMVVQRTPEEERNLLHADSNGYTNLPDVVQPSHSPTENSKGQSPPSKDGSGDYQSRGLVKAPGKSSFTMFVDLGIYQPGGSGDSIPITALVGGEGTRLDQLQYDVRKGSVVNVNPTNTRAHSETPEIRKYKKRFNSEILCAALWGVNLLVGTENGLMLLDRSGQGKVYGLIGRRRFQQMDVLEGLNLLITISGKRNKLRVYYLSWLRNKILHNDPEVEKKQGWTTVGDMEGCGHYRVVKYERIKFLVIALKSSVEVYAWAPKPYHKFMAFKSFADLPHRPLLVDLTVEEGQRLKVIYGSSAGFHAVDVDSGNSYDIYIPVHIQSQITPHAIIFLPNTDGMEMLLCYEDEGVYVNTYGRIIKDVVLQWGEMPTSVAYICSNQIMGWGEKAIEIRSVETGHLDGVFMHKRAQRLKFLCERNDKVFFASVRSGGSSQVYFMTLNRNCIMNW
T3 sequence (P51451 whole entry): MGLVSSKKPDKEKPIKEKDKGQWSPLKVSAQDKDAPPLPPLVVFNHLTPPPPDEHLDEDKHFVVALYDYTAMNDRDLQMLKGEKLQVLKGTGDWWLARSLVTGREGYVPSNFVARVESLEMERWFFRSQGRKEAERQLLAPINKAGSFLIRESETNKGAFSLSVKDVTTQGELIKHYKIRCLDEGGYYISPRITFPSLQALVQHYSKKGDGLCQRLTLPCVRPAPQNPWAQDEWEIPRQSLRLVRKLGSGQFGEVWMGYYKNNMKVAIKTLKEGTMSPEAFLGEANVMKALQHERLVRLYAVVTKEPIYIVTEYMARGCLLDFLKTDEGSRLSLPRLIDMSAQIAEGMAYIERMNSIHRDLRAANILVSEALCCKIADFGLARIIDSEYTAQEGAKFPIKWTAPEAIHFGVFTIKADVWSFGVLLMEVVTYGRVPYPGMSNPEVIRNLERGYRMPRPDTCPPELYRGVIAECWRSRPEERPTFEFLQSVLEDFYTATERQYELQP
T40 sequence (P29597 whole entry): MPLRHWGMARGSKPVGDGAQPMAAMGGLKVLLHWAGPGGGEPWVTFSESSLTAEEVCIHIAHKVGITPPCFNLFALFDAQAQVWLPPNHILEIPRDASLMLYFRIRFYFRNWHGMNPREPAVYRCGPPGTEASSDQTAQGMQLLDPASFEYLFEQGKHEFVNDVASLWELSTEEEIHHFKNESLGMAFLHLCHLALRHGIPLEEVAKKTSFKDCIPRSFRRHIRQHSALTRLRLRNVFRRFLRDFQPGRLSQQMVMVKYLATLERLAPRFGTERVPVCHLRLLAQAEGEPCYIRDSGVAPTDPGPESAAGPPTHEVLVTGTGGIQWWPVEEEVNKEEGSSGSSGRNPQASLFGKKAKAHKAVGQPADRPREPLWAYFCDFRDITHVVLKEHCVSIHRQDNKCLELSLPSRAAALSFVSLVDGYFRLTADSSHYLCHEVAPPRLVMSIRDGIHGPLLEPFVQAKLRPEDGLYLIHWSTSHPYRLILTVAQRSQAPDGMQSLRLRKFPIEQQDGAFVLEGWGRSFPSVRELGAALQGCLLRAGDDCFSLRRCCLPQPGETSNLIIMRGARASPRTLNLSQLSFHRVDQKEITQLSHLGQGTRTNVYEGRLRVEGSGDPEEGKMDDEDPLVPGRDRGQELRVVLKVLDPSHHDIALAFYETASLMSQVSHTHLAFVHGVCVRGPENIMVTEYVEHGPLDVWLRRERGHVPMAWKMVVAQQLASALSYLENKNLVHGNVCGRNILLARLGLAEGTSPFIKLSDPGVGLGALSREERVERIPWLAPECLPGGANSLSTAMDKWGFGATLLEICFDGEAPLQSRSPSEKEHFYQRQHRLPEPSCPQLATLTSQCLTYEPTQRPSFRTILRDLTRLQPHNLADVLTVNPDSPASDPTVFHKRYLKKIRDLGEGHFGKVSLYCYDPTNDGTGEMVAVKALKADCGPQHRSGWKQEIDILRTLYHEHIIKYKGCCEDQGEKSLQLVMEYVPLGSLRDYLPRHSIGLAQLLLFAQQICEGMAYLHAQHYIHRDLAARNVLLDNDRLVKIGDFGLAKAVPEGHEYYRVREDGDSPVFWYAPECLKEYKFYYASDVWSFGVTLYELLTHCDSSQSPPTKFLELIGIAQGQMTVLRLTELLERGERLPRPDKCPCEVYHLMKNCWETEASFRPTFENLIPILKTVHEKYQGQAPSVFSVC
T25 sequence (Q8IY84 whole entry): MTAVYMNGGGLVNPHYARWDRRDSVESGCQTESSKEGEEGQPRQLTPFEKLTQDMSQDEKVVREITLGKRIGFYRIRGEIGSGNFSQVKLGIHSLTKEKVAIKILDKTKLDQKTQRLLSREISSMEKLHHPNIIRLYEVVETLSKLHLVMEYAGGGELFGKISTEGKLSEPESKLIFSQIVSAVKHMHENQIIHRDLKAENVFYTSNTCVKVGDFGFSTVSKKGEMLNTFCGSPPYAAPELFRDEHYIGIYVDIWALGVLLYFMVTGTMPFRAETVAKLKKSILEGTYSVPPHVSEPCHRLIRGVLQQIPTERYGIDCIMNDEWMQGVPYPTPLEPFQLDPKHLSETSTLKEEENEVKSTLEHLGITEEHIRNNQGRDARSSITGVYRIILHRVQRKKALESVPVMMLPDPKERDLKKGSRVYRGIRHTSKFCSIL
T30 sequence (Q13177 whole entry): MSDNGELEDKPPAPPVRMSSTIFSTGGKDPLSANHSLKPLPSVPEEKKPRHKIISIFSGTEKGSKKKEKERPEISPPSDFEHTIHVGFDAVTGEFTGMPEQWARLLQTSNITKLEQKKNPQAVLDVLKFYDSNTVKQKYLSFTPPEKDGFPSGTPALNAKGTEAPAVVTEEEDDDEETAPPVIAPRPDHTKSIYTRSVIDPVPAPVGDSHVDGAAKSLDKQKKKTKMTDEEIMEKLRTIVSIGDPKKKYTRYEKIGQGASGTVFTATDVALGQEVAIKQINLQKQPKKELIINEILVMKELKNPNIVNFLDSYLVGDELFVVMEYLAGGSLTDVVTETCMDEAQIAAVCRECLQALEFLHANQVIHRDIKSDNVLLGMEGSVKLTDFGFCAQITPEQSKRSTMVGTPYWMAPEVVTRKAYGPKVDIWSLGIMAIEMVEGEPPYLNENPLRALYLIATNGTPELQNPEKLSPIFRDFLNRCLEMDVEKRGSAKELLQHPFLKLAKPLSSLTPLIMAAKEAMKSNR
T42 sequence (P30291 whole entry): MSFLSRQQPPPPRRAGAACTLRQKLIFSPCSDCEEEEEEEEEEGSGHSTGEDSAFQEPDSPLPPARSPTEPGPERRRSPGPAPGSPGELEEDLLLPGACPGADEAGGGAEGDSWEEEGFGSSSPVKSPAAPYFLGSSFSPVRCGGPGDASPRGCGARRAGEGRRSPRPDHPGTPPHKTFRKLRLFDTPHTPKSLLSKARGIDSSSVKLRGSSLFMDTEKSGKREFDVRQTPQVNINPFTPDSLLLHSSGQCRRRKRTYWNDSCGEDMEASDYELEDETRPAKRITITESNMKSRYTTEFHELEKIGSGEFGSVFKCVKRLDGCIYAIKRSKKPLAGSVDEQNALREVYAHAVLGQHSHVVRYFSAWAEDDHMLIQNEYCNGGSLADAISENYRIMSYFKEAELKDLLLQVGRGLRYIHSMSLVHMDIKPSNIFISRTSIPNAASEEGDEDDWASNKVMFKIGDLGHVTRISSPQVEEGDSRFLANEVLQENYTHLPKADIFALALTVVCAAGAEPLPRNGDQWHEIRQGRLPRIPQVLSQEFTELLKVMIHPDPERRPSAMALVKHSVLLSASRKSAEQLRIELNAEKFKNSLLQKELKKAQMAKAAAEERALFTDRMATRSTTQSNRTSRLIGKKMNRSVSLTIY
T27 sequence (Q9Y6E0 whole entry): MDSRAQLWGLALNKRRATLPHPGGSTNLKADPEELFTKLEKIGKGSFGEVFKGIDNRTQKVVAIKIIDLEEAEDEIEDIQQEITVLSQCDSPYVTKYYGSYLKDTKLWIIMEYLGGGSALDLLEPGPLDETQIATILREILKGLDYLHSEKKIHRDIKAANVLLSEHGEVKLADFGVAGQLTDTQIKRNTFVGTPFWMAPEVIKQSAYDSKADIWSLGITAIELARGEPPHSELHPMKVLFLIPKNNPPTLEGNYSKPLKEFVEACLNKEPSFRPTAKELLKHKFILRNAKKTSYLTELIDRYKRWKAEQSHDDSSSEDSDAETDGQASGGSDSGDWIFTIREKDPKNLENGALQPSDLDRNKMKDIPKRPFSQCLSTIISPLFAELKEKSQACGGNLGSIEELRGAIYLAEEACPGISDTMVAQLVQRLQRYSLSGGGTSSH

CC[C@H](Nc1nc(NCc2cnc(C)cc2C)c2ncn(C(C)C)c2n1)[C@@H](C)O [Fadraciclib, 2-pentanol, 3-[[6-[[(4,6-dimethyl-3-pyridinyl)methyl]amino]-9-(1-methylethyl)-9Hpurin-2-yl]amino]-, (2R,3S)]
inhibition at 1 µM (ALK): -9 ± 0.3%
inhibition at 1 µM (AMPKa1): -3.8%
inhibition at 1 µM (BLK): -3.6%
inhibition at 1 µM (BRAF): -8.4 ± 1%
inhibition at 1 µM (BRAF[V600E]): -1.9 ± 0.1%
inhibition at 1 µM (CDC2): 57.9 ± 1.3%
inhibition at 1 µM (CDK7): 86.7 ± 10.9%
inhibition at 1 µM (DDR2): -9.9 ± 0.1%
inhibition at 1 µM (EphA7): 6 ± 0.3%
inhibition at 1 µM (Erk2): 19.6 ± 0.8%
inhibition at 1 µM (FER): -0.3%
inhibition at 1 µM (FGR): 3.3 ± 0.1%
inhibition at 1 µM (GSK3a): 19.3 ± 1.3%
inhibition at 1 µM (IKKb): 0.2%
inhibition at 1 µM (IKKe): 2.5 ± 0.1%
inhibition at 1 µM (INSR): -12.2 ± 0.8%
inhibition at 1 µM (IRAK1): 1.6 ± 0.1%
inhibition at 1 µM (JNK3): 10.6 ± 0.6%
inhibition at 1 µM (KIT[V560G]): 2.5 ± 0.1%
inhibition at 1 µM (MAP2K1): -6.8 ± 0.1%
inhibition at 1 µM (MAP3K4): 7.6 ± 0.1%
inhibition at 1 µM (MAP4K2): 2 ± 0.1%
inhibition at 1 µM (MARK2): -1.9 ± 0.1%
inhibition at 1 µM (MARK3): -0.9 ± 0.1%
inhibition at 1 µM (MGC42105): -7.3 ± 0.1%
inhibition at 1 µM (MINK): -15.8 ± 0.3%
inhibition at 1 µM (MST3): -16.4 ± 0.7%
inhibition at 1 µM (MST4): -2.1%
inhibition at 1 µM (PAK1): -5.8 ± 0.2%
inhibition at 1 µM (PAK2): -2.9%
inhibition at 1 µM (PAK6): -5.4%
inhibition at 1 µM (PKACa): -0.8%
inhibition at 1 µM (PKCa): 17.8 ± 0.5%
inhibition at 1 µM (PKCb2): -14.3 ± 0.1%
inhibition at 1 µM (PKCg): 17.2%
inhibition at 1 µM (PKCz): -0.2%
inhibition at 1 µM (PKD1): 12.4 ± 0.5%
inhibition at 1 µM (TAK1): 0.3%
inhibition at 1 µM (TBK1): -4.8 ± 0.1%
inhibition at 1 µM (TYK2): -0.1%
inhibition at 1 µM (TYRO3): -14.8 ± 0.2%
inhibition at 1 µM (WEE1): 35.1 ± 0.1%
inhibition at 1 µM (WNK1): -3.3%
